Values quoted from earlier work, collected in patent US20160120822A1, “COMPOSITION CONTAINING ROTIGOTINE AND USE THEREOF AND TRANSDERMAL PATCH CONTAINING THE COMPOSITION” (Jiangsu Kangbeide Pharmaceuticals Co. Ltd., priority 2007, published 2016).

Conditions: oral formulations

clearance after oral intake: overly high | duration of action after oral intake: relatively short
Compound: CCCN(CCc1cccs1)[C@H]1CCc2c(O)cccc2C1 [Rotigotine]
